Patent publication EP0274158B1, “Novel heterocycle-substituted diphosphonate compounds, pharmaceutical compositions, and methods of treating abnormal calcium and phosphate matabolism” (Norwich Eaton Pharmaceuticals, Inc., priority 1986, dated 1988)

Assays:
bone resorption [1] = test: Schenk model, in vivo bone resorption inhibition; parameters: species or system male Sprague Dawley rats; settings: subcutaneous injection, daily for 7 days, tibia metaphyseal trabecular bone content
Method: The compounds are evaluated for in vivo bone resorption inhibition and mineralization inhibition in an animal model system known in the field of bone metabolism as the Schenk Model. The general principles of this model system are disclosed in Shinoda et al., Calcif.
Preweaning 17-day-old (30 gms) male Sprague Dawley rats (Charles River Breeding Laboratories) are shipped with their mothers and placed in plastic cages with their mothers upon arrival. At 19 days of age, pups receiving Rat Chow and water ad libitum are randomly allocated into treatment or control groups comprising seven animals per group. On day 1 and again on day 7 all animals are given an intraperitoneal ("IP") injection of Calcein (1% solution in 0.9% saline solution; dosed at 0.2 ml/100 g body weight). On day 4 all animals are given an IP injection of tetracycline hydrochloride (1% solution in 0.9% saline solution; dosed at 0.2 ml/100 g body weight). These compounds label actively mineralizing bone and cartilage.
All solutions are prepared for subcutaneous injection in 0.9% normal saline and adjusted to pH 7.4 using NaOH and/or HCl. Dose solution calculation is made by considering the mass of powder (based on molecular weight, hydration) of the active material in mg/kg (body weight) that corresponds to mgP/kg. Concentrations are based on dosing 0.2 ml/100 g body weight. […] Compounds showing activity at 0.1 mg P/kg/day are then tested at logarithmic decrements down to 0.001 mg P/kg/day. Adjustments in dosage based on changes in body weight are made on a daily basis.
On day 8 after the start of dosing, all animals are sacrificed by IP overdose of pentabarbitol. Tibias are dissected free and placed in 70% ethyl alcohol. […] The tibia is sectioned longitudinally through the metaphyseal area. Specimens are stained on one surface with silver nitrate and mounted on microscope slides for evaluation with a Quantimet Image Analyzer (Cambridge Instruments, Inc.) using both incandescent and ultraviolet illumination. Metaphyseal trabecular bone content is measured in the region between the fluorescent label and the growth plate: expressed as percent of total area (bone + marrow). Epiphyseal growth plate width is obtained as the mean value of 10 equally-spaced measurements across the section.
Statistical evaluation of data is made using parametric and non-parametric analysis of variance and Wilcoxons rank sum test to determine a statistically significant effect compared to control animals.
The Schenk model provides data for in vivo bone resorption inhibition by the compounds.

[2] = test system: hypercalcemia of malignancy; test: Injectable solution in patients with hypercalcemia of malignancy (Example 8); assay type: in vivo; settings: 0.07 mg P in 1.0 ml saline, pH 7.4, one injection daily for 4 days, patients of approximately 70 kilograms
Method: Injectable solutions are prepared by conventional methods using 1.0 ml of physiological saline solution and 0.07 mg P of N-(2'-(3'-methyl)-piperidinylidene)-amino-methane diphosphonic acid, adjusted to pH = 7.4.

[3] = test system: parathyroid hormone (PTH)-induced rise in serum total and ionized calcium levels; test: Thyroparathyroidectomized (TPTX) rat model, in vivo bone resorption inhibition potency; parameters: species or system male Wistar rats; settings: subcutaneous injection, daily for 4 days, TPTX rats, PTH challenge; lowest dose that decreases the rise in serum calcium
Method: The compounds are evaluated for in vivo bone resportion inhibition potency by an animal model system known as the thyroparathyroidectomized (TPTX) rat model. The general principles of this model system are disclosed in Russell et al., Calcif. Tissue Research, 6, 183-196 (1970), and in Muhlbauer and Fleisch, Mineral Electrolyte Metab., 5, 296-303 (1981), the disclosures of which are incorporated herein by reference. The basic biochemical concept of the TPTX system is inhibition of the parathyroid hormone (PTH)-induced rise in serum total and ionized calcium levels by the respective bone active polyphosphonates.
Low calcium and low phosphorous diets used are prepared by Teklad^R Test Diets (Harlan Industries, Madison, Wisconsin 53711) in a pellet form of approximately 0.18% calcium and 0.22% phosphorous. The diets contain all the essential vitamins and minerals required for the rat, with the exception of calcium and phosphorous. The calcium and phosphorous levels of the pellets are verified analytically.
PTH is acquired as a powdered bovine extract (Sigma Chemical Co., P. O. Box 14508, St. Louis, Missouri, order #P-4410). PTH is prepared in 0.9% saline such that the final concentration is 100 µg PTH/ml, or approximately 200 U.S.P. units/ml. All solutions are filtered through a #4 Whatman Filter Paper and refiltered through a 0.45 µm Metricel ^R filter.
All solutions of compounds to be tested for bone resorption inhibition potency are prepared for subcutaneous injection in 0.9% normal saline and adjusted to pH 7.4 using NaOH and/or HCl. Dose solution calculation is made by considering the mass of powder (based on molecular weight, hydration) of the active material in mg/kg (body weight) that corresponds to mg P/kg. Concentrations are based on dosing 0.2 ml/100 grams of body weight. Typically, all compounds are administered at 0.01, 0.1, and 1.0 mg P/kg/day for 4 days in order to determine the lowest effective dose ("LED"). Where necessary the test is repeated, whereby the animals are administered with 0.5 LED in order to refine the determination of LED. Adjustments in dosage based on changes in body weight are made on a daily basis.
In this study 50 male Wistar rats weighing approximately 150-160 grams are thyroparathyroidectomized surgically by the breeder (Charles River Breeding Laboratories). All rats are double housed on arrival in suspended cages with Purina Laboratory Rodent Chow^R and tap water ad libitum. After acclimation to the laboratory environment for 3-5 days, the rats are placed on a low calcium, low phosphorous (.18%/.22%) diet (Teklad^R) and given 2% (W/V) calcium gluconate supplemented deionized water via water bottles.
On day three of low calcium diet, all rats are weighed. On day four, all rats are anesthetized with Ketaset^R (Ketamine Hydrochloride, 100 mg/ml, Bristol Myers), 0.10 ml/rat, and then bled from the retro-orbital venous plexus for serum total calcium analysis using Flame Atomic Absorption (FAA) or Nova 7+7 Automated Calcium Analyzer. All rats weighing less than 150 grams are eliminated from the study. Animals are then randomized statistically such that the mean total serum calcium for each group is the same. Only rats deemed hypocalcemic (total serum calcium ≦8.0 mg/dl) are placed in study groups comprising six animals per group.
Treatments with the various experimental compounds commence on day 6 and last through day 9 of the study. Dose solutions are prepared to be given at a constant rate of 0.2 ml/100 grams of body weight subcutaneously in the vental skin flap where the hind leg meets the torso. All rats are weighed and dosed daily. A 25 gauge 5/8" needle is used to administer drug, alternating right and left dose sites daily. On day 8, animals are changed to deionized, distilled water via water bottles. On day 9 all rats are fasted in the afternoon at approximately 4:0 P.M. On day 10 of study no treatment is given. […]

skeleton = settings: Technetium-99m labelled, bone scintigraphy; Unterspann 1976; cited from earlier work
hamsters' incisors = settings: parenteral administration to hamsters; Landeck and Binus 1980; cited from earlier work
bone resorption [4] = test: Tablets given orally to a patient afflicted with Paget's disease (Example 7); assay type: in vivo; settings: 25 mg P per tablet, orally twice daily for 6 months, patient of approximately 70 kilograms
Method: Tablets are prepared by conventional methods, formulated as follows: […]

bone resorption [5] = test: Capsules given orally to a patient afflicted with osteoporosis (Example 6); assay type: in vivo; settings: 25 mg P per capsule, orally twice daily for 6 months, patient of approximately 70 kilograms
Method: Capsules are prepared by conventional methods, comprised as follows: […]

SMILES | Lowest Effective (Antiresorptive) Dose - Schenk; Schenk LED (bone resorption [1]) | Lowest Effective (Antiresorptive) Dose-TPTX [3] | also measured
CC1CCCN=C1NC(P(=O)(O)O)P(=O)(O)O (stereo not shown) [N-(2'-(3'-methyl)piperidinylidene)AMDP, N-(2'-(3'-methyl)-piperidinylidene)-amino-methane diphosphonic acid] | 0.001 mg/P/kg | 0.001 mg P/kg | alleviation of hypercalcemia of malignancy [2]: appreciable alleviation of hypercalcemia of malignancy
O=P(O)(O)C(N1CCCCC1)P(=O)(O)O [N-piperidinyl-methane-diphosphonic acid] |  |  | skeleton activity compared with EHDP (skeleton): less skeleton activity than EHDP; effect on the mineralization of the incisors (hamsters' incisors): Little or no effect on the mineralization of the incisors
O=P(O)(O)C(O)(CC1CCCCN1)P(=O)(O)O (stereo not shown) [2-(2'-piperidinyl)-1-hydroxy-ethane-1,1-diphosphonic acid] |  |  | bone resorption in a patient afflicted with Paget's disease (bone resorption [4]): substantially reduce bone resorption
NCCC(O)(P(=O)(O)O)P(=O)(O)O [APD, 3-amino propane-1-hydroxy-1,1-DP] | 0.1 mg/P/kg | 0.1 mg P/kg | 
O=P(O)(O)C(CC1CCCCN1)P(=O)(O)O (stereo not shown) [2-(2'-piperidinyl)-EDP, 2-(2'-piperidinyl)-ethane-1,1-diphosphonic acid] | 0.01 mg/P/kg | 0.01 mg P/kg | bone resorption in a patient afflicted with osteoporosis (bone resorption [5]): substantially reduce bone resorption
O=P(O)(O)C(Cl)(Cl)P(=O)(O)O [Cl₂MDP, dichloromethane DP] | 1.0 mg/P/kg | 1.0 mg P/kg | 
CC(O)(P(=O)(O)O)P(=O)(O)O [EHDP, ethane-1-hydroxy-1,1-diphosphonic acid] | 1.0 mg/P/kg | 1.0 mg P/kg | 
O=P(O)(O)C(NC1=NCCCN1)P(=O)(O)O [N-(2'-(1',3'-diazinylidene))AMDP, N-(2'-(1',3'-diazinylidene))-aminomethane diphosphonic acid] |  | 0.001 mg P/kg | 
